Data reported in ChEMBL document CHEMBL4346724, “Porphyrinoid photosensitizers mediated photodynamic inactivation against bacteria” (Eur J Med Chem, 2019).

Legend:
[1] = system: Mycobacterium tuberculosis; experiment: Photodynamic antibacterial activity against extensively drug resistant Mycobacterium tuberculosis assessed as reduction in bacterial burden at 10 ug/ml preincubated for 2 hrs in dark followed by light irradiation at 50 J/cm2 for 500 secs; format: functional
[2] = system: Mycobacterium tuberculosis; experiment: Photodynamic antibacterial activity against multidrug resistant Mycobacterium tuberculosis assessed as reduction in bacterial burden at 10 ug/ml preincubated for 2 hrs in dark followed by light irradiation at 50 J/cm2 for 500 secs; format: functional

C=Cc1c(C)c2cc3nc(c(C=O)c4[nH]c(cc5nc(cc1[nH]2)C(C)=C5C)c(C)c4C(=O)O)[C@@H](CCC(=O)O)[C@@H]3C
log(activity) [1]: 2.8 | log(activity) [2]: 3.1
